{"source": "patent US20240216412A1", "about": "“OXIDIZED NICOTINAMIDE ADENINE DINUCLEOTIDE (NAD+) PRECURSOR TREATMENT FOR HEART FAILURE ALLEVIATION INDEPENDENT OF MITOCHONDRIAL PROTEIN DEACETYLATION” (University of Washington, priority 2022, published 2024)", "format_in_all_cases": "in vivo, mouse", "key": {"[1]": {"tested_on": "NAD(H) levels in hearts and livers", "experiment": "Heart and liver NAD+/NADH after oral or IP NR administration (Experimental Example 2)", "description": "Mice 2-4 months old were used, weighing 25 to 27 g, with water intake ranging from 3.5 to 6.5 ml/day. To each mouse, either NR as an NAD precursor was administered daily or vehicle was administered daily, for up to 10 days, either by IP injection or orally by drinking water. Saline was used as vehicle for IP injection. For oral administration, vehicle was unmodified drinking water. NR was supplied substantially as in Experimental Example 1. For IP administration, NR was diluted in sterile, pharmaceutical-grade isotonic saline at concentrations based on weight-based dosing per subject to provide respective 500 mg/kg body weight daily doses as administrated by IP injection. Additionally, for oral administration, NR was dissolved in sterile filtered water at concentrations based on weight-based dosing per subject to provide respective 400 mg/kg body weight daily doses, provided for drinking adlibitum. […] Over the first several days of oral administration of NR solutions, the consumption of NR water was monitored daily to verify that mice are not finding the NR water unpalatable and becoming dehydrated. […] NAD^+ and NADH were determined in approximately 6 mg heart tissue and approximately 6 mg liver tissue using BioAssay Systems EnzyChrom NAD^+/NAD Assay Kit ([…]-100) per manufactures instructions."}, "[2]": {"tested_on": "fatty acid oxidation (acylcarnitines) in heart", "experiment": "Cardiac acyl-carnitine profiling (LC/MS)", "description": "Cardiac acyl-carnitines. Metabolites were extracted from frozen heart tissue (10 mg) by precipitating in 80:20% methanol:water following the addition of 1 ug/ml internal standard (C16 palmitoylcarnitine, d3, Cambridge Isotope Laboratories, Inc.). After centrifugation, the supernatant was transferred to LC/MS auto sampler vials (Thermo Fisher). The protein pellet was redissolved in 0.1 M NaOH and protein concentration measured for normalization.\nAcyl-carnitines were analyzed using a Triple TOF—5600 (AB Sciex) series mass spectrometer in line with a Water Acquity I-class UPLC. Chromatographic separation was achieved using an Acquity UPLC BEH HILIC, 1.7 micron, 2.1×100 mm column (Waters) with a flow rate of 0.5 ml/min. Total run time was 22 minutes. The mobile phase was composed of two solvents: A=5 mM Ammonium Acetate in 95:5 acetonitrile:water and B=5 mM Ammonium Acetate in 50:50 acetonitrile:water using the following gradient.\nSamples were analyzed in positive electrospray ionization (ESI+) with a mass range from 50-1000 Da. […] Additional acyl-carnitines were identified by their m/z value as compared to theoretical values determined by the molecular formula ±0.003 D. Peak areas intensities were normalized to protein concentration."}, "cardiac mitochondria": {"tested_on": "cardiac mitochondria", "experiment": "Isolated cardiac mitochondria respiration (oxygen electrode)", "settings": "both genotypes", "description": "Mitochondrial Isolation from cardiac tissue. Hearts were excised from mice, the aortas and atria were removed. Heart tissues were rinsed briefly in ice-cold mitochondria isolation medium (MIM) (70 mM sucrose, 220 mM mannitol, 5 mM MOPS, 1 mM EDTA, 0.025% fatty acid-free BSA, pH 7.4 with 5M KOH) to remove residual blood. Tissues were minced on ice and resuspended in fresh MIM, followed by trypsin digestion (10 ug/ml) and incubated on ice for 10 min. Trypsin digestion was stopped by the addition of trypsin inhibitor (0.5 mg/ml) and additional BSA (1 mg/ml) to MIM. The tissue pellets were resuspended in fresh MIM containing 1 mg/ml BSA, and transferred to a Teflon-glass tube and homogenized on ice with a Teflon pestle. The homogenates were centrifuged for 10 min at 800×g at 4° C. The supernatants were collected and centrifuged for 10 min at 8,000×g at 4° C. The supernatant was discarded and the mitochondrial pellets were resuspended in MIM to wash. The resuspension was centrifuged for 10 min at 8,000×g at 4° C., and the supernatant discarded. The mitochondrial pellet was resuspended to a concentrated volume for protein quantification by BCA Assay (Pierce).\nMitochondrial respirations. Isolated mitochondria respiration experiments were performed in an Clark type oxygen electrode Oxytherm System (Hansatech Instruments) at 30C. Briefly, freshly isolated mitochondria were added to respiration buffer (125 mM KCl, 20 mM HEPES, 3 mM MgCl2, 400 μM EGTA, 5 mM KH2PO4, 0.2% BSA (fatty acid free), pH 7.2) and placed in the respiration chamber to measure baseline respiration (State 1). The change in oxygen levels following the immediate addition of substrates (pyruvate/malate (5 mM/2 mM) or palmitoylcarnitine/malate (50 μM/2 mM) (State 2) followed by the sequential addition of 2.5 mM ADP (State 3), […] Oligomycin (State 4p) and 1 μM FCCP (FCCP Max). Antimycin A (2.5 μM) was added last to measure the residual oxygen consumption not accounted for by the electron transfer chain and it was subtracted from the previous measurements."}}, "data": [{"compound": "NC(=O)c1ccc[n+]([C@@H]2O[C@H](CO)[C@@H](O)[C@H]2O)c1", "note": "[NR, Nicotinamide riboside chloride]", "values": [{"measurement": "Increase of NAD(H) in hearts and livers, IP injection over oral administration", "setting": "[1]; IP 500 mg/kg daily 10 days vs oral 400 mg/kg daily 3 or 7 days", "value": "greater increases"}, {"measurement": "Levels of NAD(H) in hearts and livers", "setting": "[1]; oral 400 mg/kg daily 3 or 7 days, IP 500 mg/kg daily 10 days", "value": "increased"}, {"measurement": "Tissue content of lipid derived acylcarnitines and hydroxy-acylcarnitines", "setting": "[2]; NR treated TAC hearts, to level similar to WT-Sham", "value": "increased"}, {"measurement": "C16 (palmitoylcarnitine) levels", "setting": "[2]; WT and Sirt3ko NR treated TAC hearts vs vehicle", "value": "increased"}, {"measurement": "Mitochondrial respiratory function (State 3 respiration)", "setting": "cardiac mitochondria; TAC, Complex I substrates", "value": "improved"}, {"measurement": "Palmitoylcarnitine (PLC) supported State 3 respiration (ADP stimulated)", "setting": "cardiac mitochondria; cardiac mitochondria from ISO treated hearts, NR", "value": "restored"}]}]}
